Data on 1 compound can be found in PMC7998731, “Pharmacokinetic Characterization of Supinoxin and Its Physiologically Based Pharmacokinetic Modeling in Rats” (Pharmaceutics, 2021).

Series [1] can be described thus: Unbound fraction in microsomal incubation mixture (Rapid Equilibrium Dialysis). The following applies: rat, liver microsomes 0.5 mg protein/mL. The series is classed as in vitro ADME. As for the experimental part:
To determine the unbound fraction of supinoxin in the plasma, a protein binding study was carried out using the Rapid Equilibrium Dialysis (RED) method. Following the manufacturer’s protocol (Thermo Fisher Scientific, San Jose, CA, USA), supinoxin was added to a plasma aliquot to produce a final concentration of 1 µg/mL. A plasma aliquot containing supinoxin (200 µL) and buffer (350 µL) was added to the sample chamber and the buffer chamber, respectively. When necessary, supinoxin was added to the microsomal incubation mixture (0.5 mg of protein per mL in potassium phosphate buffer) to produce final concentrations of 1 µM. The plate was covered and agitated on an orbital shaker at approximately 250 rpm at 37 °C. Aliquots (25 µL) of the plasma and buffer were collected at 4, 8, 18, and 24 h, and the samples were subjected to LC–MS/MS analysis. The fraction of supinoxin bound to plasma protein was estimated as follows:Percent bound (%) = [1 − (concentration in buffer/concentration in plasma)] × 100%(5)
(Equilibrium dialysis compares concentrations on both sides of a semipermeable membrane.)

Another series concerns the target T1, CYP2C9 (Homo sapiens, UniProt P11712).
T1 construct: purchased Thermo Fisher Scientific
Description: CYP inhibition, Vivid CYP450 screening kit. The format is in vitro ADME. As for the experimental part: (§1) CYP inhibition by supinoxin was studied using Vivid® CYP450 screening kits (Thermo Fisher Scientific, San Jose, CA, USA) following the manufacturer’s instructions. Briefly, Vivid® substrates were dissolved in acetonitrile yielding a stock solution of 2 mM. Fluorescent assays were conducted at room temperature using Costar 96-well black plates (#3915; Corning Costar, Acton, MA, USA). Supinoxin stock solution was diluted in reaction buffer to yield a 2.5X concentration solution (final concentration of 10 µM); aliquots (40 μL) of the solution were added to the wells. Subsequently, aliquots (50 μL) of reaction mixture consisting of P450 Baculosomes® Reagent and the NADPH regeneration system were also added to the wells and preincubated for 10 min, at room temperature, after which 10 μL of 1 mM NADP^+ and Vivid® substrate mixture were added. After a 30-min incubation, fluorescence was detected in end-point mode using a Varioscan™ Flash multimode reader (Thermo Fisher Scientific, San Jose, CA, USA). Background fluorescence was obtained from wells not containing CYP isozymes and was withdrawn before further reaction. The excitation and emission wavelengths of 485 nm/530 nm for Vivid® Green substrates, and 409 nm/460 nm for Vivid® Blue substrates were used. The inhibition percentage of the compound was determined in comparison to the vehicle (i.e., DMSO)-treated control wells. For isozymes with > 50% inhibition at 10 μM, we determined the concentration-dependent inhibition of supinoxin to obtain the IC50 value at concentrations ranging from 0.59 to 10 μM.

The target of the next series is T2, CYP2D6 (Homo sapiens, UniProt P10635).
T2 construct: purchased Thermo Fisher Scientific
T2 sequence (P10635 whole entry): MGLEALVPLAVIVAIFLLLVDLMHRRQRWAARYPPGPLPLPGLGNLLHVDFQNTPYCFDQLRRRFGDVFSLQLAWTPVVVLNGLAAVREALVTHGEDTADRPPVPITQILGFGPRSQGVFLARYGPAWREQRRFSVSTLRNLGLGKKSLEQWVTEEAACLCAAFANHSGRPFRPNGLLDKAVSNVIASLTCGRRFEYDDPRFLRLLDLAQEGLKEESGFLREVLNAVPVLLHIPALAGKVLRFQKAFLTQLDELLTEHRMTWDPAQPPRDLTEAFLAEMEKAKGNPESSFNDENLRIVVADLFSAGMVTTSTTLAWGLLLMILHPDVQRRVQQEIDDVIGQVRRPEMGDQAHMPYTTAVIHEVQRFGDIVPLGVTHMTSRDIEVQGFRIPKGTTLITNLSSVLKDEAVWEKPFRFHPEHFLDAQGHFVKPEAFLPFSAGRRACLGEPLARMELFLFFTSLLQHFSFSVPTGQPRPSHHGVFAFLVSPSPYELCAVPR
Description: CYP inhibition, Vivid CYP450 screening kit. The series is classed as in vitro ADME. As for the experimental part: as §1

The target in another series is T3, CYP3A4 (Homo sapiens, UniProt P08684).
T3 construct: purchased Thermo Fisher Scientific
T3 sequence (P08684 whole entry): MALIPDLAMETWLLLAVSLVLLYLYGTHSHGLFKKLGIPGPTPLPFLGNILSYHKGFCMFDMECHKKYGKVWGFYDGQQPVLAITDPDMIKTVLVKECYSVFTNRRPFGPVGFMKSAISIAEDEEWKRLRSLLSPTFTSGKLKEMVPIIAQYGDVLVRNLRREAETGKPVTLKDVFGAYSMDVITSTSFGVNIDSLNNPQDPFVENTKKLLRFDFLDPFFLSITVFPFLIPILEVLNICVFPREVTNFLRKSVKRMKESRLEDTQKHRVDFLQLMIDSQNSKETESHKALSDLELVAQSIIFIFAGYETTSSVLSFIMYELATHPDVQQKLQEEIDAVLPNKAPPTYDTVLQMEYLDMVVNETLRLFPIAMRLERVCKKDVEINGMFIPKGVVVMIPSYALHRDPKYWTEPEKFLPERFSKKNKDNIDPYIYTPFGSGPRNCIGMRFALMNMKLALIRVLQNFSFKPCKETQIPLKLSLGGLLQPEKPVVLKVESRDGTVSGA
Description: CYP inhibition, Vivid CYP450 screening kit. The format is in vitro ADME. As for the experimental part: as §1

A further series addresses T4, CYP2C19 (Homo sapiens, UniProt P33261).
T4 construct: purchased Thermo Fisher Scientific
Description: CYP inhibition, Vivid CYP450 screening kit. The format is in vitro ADME. The method, then: as §1

A further series addresses T5, CYP1A2 (Homo sapiens, UniProt P05177).
T5 construct: purchased Thermo Fisher Scientific
T5 sequence (P05177 1-516): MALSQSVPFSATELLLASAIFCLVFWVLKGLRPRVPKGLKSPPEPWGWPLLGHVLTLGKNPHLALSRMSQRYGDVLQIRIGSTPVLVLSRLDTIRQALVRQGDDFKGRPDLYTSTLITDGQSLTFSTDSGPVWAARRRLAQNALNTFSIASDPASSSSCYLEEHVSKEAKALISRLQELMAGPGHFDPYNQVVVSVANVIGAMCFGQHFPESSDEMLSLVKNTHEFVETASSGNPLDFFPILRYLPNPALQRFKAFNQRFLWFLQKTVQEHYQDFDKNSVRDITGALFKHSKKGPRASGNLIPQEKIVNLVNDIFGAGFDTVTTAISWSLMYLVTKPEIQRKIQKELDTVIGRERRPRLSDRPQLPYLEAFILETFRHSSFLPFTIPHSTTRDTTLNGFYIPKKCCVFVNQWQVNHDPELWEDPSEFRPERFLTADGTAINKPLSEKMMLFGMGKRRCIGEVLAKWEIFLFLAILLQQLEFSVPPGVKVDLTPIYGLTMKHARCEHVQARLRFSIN
Description: CYP inhibition, Vivid CYP450 screening kit. The series is classed as in vitro ADME. As for the experimental part: as §1

A short description of series [2]: Determination of urinary and fecal excretion in rats. The series is classed as in vivo. The following applies: 5 mg/kg; for Fecal excretion, Amount / Fecal excretion, Fraction Excreted (unchanged) / Urinary excretion, Amount / Urinary excretion, Fraction Excreted (unchanged): 0–48 h. As for the experimental part: Supinoxin was administered to male SD rats (n = 3–4) at a dose of 5 mg/kg either intravenously (through the tail vein) or by oral gavage, following which rats were kept in metabolic cages and urine and feces samples were collected over the following time intervals: 0–2, 2–4, 4–6, 6–10, 10–24, 24–36, and 36–48 h for urine; 0–10, 10–24, 24–36, and 36–48 h for feces.
The metabolic cages were rinsed with distilled water, and residues were added to the urine samples at 48 h. To extract the supinoxin present in the feces, samples were homogenized with a blender mixer and shaken vigorously for 4 h with 50% methanol.
The amount of drug excreted in urine or feces (Ae) and the dose fractions excreted unchanged in urine or feces (fe) were calculated as:Ae = Cobs, urine or feces × Vurine or feces(2) fe = Ae/Dose(3)
The urinary and fecal clearances of supinoxin were calculated as:CLurine or feces = Ae, urine or feces/AUC(4)

Several values for one entry are separate records, joined by “and”; a condition that tells them apart may be missing. Equal values may be shown once.

The fraction unbound is free concentration divided by total concentration. For orientation: IC50 means the concentration that inhibits the measured activity by half. Usually inhibition stands for the change of the read-out against control, counted positive when it falls.

T1 sequence (P11712 whole entry): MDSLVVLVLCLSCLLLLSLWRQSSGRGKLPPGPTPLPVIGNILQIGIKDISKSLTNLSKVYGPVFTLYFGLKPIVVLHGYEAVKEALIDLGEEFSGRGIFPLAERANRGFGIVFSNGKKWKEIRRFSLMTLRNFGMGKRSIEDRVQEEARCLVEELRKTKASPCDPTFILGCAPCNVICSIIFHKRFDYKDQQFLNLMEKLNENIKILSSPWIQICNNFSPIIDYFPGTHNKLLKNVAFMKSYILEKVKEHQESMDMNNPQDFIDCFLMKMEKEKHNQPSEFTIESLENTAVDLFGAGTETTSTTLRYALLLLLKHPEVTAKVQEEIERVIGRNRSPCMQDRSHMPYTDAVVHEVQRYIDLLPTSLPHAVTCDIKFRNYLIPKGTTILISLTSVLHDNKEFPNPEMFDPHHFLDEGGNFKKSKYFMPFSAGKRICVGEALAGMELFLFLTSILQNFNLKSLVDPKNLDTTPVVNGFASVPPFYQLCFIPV
T4 sequence (P33261 whole entry): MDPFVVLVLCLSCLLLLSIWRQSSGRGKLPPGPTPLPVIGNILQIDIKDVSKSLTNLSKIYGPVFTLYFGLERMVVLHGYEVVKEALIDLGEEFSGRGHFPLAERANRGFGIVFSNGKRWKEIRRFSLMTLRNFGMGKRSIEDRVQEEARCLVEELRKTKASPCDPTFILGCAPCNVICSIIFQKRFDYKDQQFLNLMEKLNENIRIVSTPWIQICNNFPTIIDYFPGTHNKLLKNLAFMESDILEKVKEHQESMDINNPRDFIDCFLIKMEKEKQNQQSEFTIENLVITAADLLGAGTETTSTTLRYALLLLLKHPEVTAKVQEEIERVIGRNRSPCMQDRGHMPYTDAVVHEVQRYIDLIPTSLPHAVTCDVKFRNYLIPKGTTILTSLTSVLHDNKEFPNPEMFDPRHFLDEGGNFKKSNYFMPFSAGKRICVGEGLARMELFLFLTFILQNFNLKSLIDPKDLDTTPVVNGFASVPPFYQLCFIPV

`COc1cc(OC)cc(N2CCN(C(=O)Nc3nc4cc(F)ccc4nc3OC)CC2)c1` [supinoxin, 1-(3,5-Dimethoxyphenyl)-4-[(6-Fluoro-2-Methoxyquinoxalin-3-yl) Aminocarbonyl] Piperazine]: the fraction unbound at 18 h, 1 µM in series [1] (liver microsomal incubation mixture, 18 h incubation) is 0.623 ± 0.016. The unbound share (fraction unbound) at 4 h, 1 µM in series [1] (4 h incubation) was found to be 0.518 ± 0.025. Also, the free fraction (fraction unbound) at 8 h, 1 µM in series [1] (8 h incubation) came out at 0.57 ± 0.017. For the same compound, the unbound share (fraction unbound) at 24 h, 1 µM in series [1] (24 h incubation) amounted to 0.615 ± 0.046. The IC50 is more than 10 µM on CYP2C9 (human recombinant CYP2C9); more than 10 µM at CYP2D6 (human recombinant CYP2D6); 4.66 µM at CYP3A4 (human recombinant CYP3A4, 0.59 to 10 μM); more than 10 µM at CYP2C19 (human recombinant CYP2C19); more than 10 µM at CYP1A2 (human recombinant CYP1A2). Also, the inhibition at 30 min, 10 µM at CYP2C9 (recombinant human CYP2C9 (P450 Baculosomes), probe Vivid substrate, human recombinant CYP2C9, 10 µM, read-out: inhibition compared to the vehicle control) is 16.2%; at CYP2D6 (recombinant human CYP2D6 (P450 Baculosomes), probe Vivid substrate, human recombinant CYP2D6, 10 µM, read-out: inhibition compared to the vehicle control) it was less than 0.01%; on CYP3A4 (recombinant human CYP3A4 (P450 Baculosomes), probe Vivid substrate, human recombinant CYP3A4, 10 µM), more than 50%; on CYP2C19 (recombinant human CYP2C19 (P450 Baculosomes), probe Vivid substrate, human recombinant CYP2C19, 10 µM, read-out: inhibition compared to the vehicle control) it was 35.7%; on CYP1A2 (recombinant human CYP1A2 (P450 Baculosomes), probe Vivid substrate, human recombinant CYP1A2, 10 µM, read-out: inhibition compared to the vehicle control), 5.9%. The “Fecal excretion, Amount” value in series [2] (IV) was determined as 142 ± 21.6 µg; in series [2] (PO) it was 412 ± 209 µg. Moreover, the “Fecal excretion, Fraction Excreted (unchanged)” value in series [2] (IV) is 16.5% and 16.5 ± 2.82%; in series [2] (PO) it was 46.8% and 46.8 ± 24.5%. Moreover, the “Urinary excretion, Amount” value in series [2] (IV) worked out at 0.27 ± 0.06 µg; in series [2] (PO) it was 0.06 ± 0.04 µg. The “Urinary excretion, Fraction Excreted (unchanged)” value in series [2] (IV) was 0.03% and 0.03 ± 0.01%; in series [2] (PO), 0.01% and 0.01 ± 0.01%. Besides, in series [2] (male, Sprague-Dawley (SD), rat, urine, both intravenous and oral administration, read-out: total urinary recovery of unchanged supinoxin), the dose excreted was less than 0.1%.
